According to patent publication US4948797A, “2,2-disubstitued 2,3-dihydro-1,4-benzodioxin derivatives having hypotensive activity” (Istituto Luso Farmaco d'Italia S.p.A., priority 1988, dated 1990):

Assays:
SHR rat = experiment: anti-hypertensive activity in the SHR rat by oral route (with heart rate); assay type: in vivo
Excerpt: (§1) Bremner, Eur. J. Pharmacol 55, 323 (1979) and D. C. U. Prichard et al, Mol. Pharmacol 13, 454 (1977), while in vivo they seem to have a low toxicity and a good and durable anti-hypertensive activity, determined in the SHR rat by oral route, with the method reported by J Pfeffer et al, J. Lab. Clin. Med. 78, 957 (1971).

[1] = toxicity, expressed as LD50, oral; conditions: in vivo
α1 receptors = experiment: in vitro affinity for the α1 receptors, determined in respect of [^3 H]-Prazosin; assay type: binding
Excerpt: as §1

α2 receptors = experiment: in vitro action on the α2 receptors, determined in respect of [^3 H]-Clonidine; assay type: binding
Excerpt: as §1

SMILES	effect on heart rate (SHR rat; 20 mg/kg/os dosage)	reduction of the pressure (SHR rat; SHR rat, 20 mg/kg/os dosage)	LD50 [1]	IC50 (α1 receptors)	IC50 (α2 receptors)	effect on heart rate (SHR rat; 30 mg/kg/os dosage)	reduction in the pressure (SHR rat; SHR rat, 30 mg/kg/os dosage)
CC1(C(O)CN2CCC(n3c(=O)[nH]c4ccccc43)CC2)COc2ccccc2O1 (racemic) [1-[2-(2,3-dihydro-2-methyl-1,4-benzodioxin-2-yl)-2-hydroxy-ethyl]-4-piperidinyl]-1,3-dihydro-2H-benzimidazol-2-one]	without significantly varying the heart rate	21%	~1000 mg/kg	55 nM	18000 nM		
COc1cc2nc(N3CCN(CC(O)C4(C)COc5ccccc5O4)CC3)nc(N)c2cc1OC.Cl (stereo not shown) [1-(4-amino-6,7-dimethoxyquinazolin-2-yl)-4-[2-(2,3-dihydro-2-methyl-1,4-benzodioxin-2-yl)-2-hydroxyethyl]-piperazine hydrochloride]			> 2000 mg/kg	3.6 nM	> 10000 nM	without significantly modifying the heart rate	20%
